Patent US12226412B2, “Heteroaryl-ketone fused azadecalin glucocorticoid receptor modulators” (Corcept Therapeutics, Inc., priority 2012, dated 2025)
Read-outs that look alike come from different tables or passages of the source.

Key:
human recombinant GR = target: T1, human recombinant GR (Homo sapiens, UniProt P04150); experiment: Human glucocorticoid receptor (GR) fluorescence polarisation (FP) binding assay
T1 construct: purchased PanVera P2812
T1 sequence (P04150 1-777): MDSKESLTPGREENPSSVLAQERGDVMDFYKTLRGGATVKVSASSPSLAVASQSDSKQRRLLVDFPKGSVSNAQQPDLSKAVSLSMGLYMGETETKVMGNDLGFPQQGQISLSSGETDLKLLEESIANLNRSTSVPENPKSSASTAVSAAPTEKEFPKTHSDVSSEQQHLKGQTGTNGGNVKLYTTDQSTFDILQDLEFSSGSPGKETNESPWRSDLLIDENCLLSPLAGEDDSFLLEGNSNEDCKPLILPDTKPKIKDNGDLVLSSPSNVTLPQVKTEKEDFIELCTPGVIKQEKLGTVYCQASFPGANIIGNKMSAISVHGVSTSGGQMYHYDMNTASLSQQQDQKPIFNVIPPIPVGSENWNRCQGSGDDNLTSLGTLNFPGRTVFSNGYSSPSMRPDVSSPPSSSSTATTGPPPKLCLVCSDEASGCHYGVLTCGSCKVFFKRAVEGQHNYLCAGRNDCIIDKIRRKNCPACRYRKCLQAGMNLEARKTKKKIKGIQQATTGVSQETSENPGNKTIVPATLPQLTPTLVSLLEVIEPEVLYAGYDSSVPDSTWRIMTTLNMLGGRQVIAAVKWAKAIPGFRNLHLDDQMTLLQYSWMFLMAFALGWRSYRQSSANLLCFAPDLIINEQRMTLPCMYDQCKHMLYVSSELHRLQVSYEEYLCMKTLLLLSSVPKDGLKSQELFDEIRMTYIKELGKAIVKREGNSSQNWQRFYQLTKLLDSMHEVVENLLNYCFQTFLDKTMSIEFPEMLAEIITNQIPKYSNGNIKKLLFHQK
Procedure: Human Glucocorticoid Receptor (GR) Fluorescence Polarisation (FP) Binding Assay
The following is a description of a FP assay for measuring compound inhibition of labelled glucocorticoid binding to the human recombinant GR.
The binding affinity of test compounds was determined using a FP binding assay using human recombinant GR (PanVera P2812) and a fluorescent labelled glucocorticoid ligand (Fluorome GS Red) (PanVera P2894). The presence of inhibitors prevents the formation of a GS Red/GR complex resulting in a decrease in the measured polarisation value. The change in polarisation value in the presence of test compounds is used to calculate the binding affinity of the compound for GR.
This assay was performed in 384 well, black, round-bottom, polypropylene micro titre plates in a final volume of 20 μl. The assay contained 5 μl 1 nM GR (final concentration), 5 μl 0.5 nM Fluorome GS Red (final concentration) in the presence of 10 μl test compounds. Positive control wells (high polarisation) receive, 10 μl 2% (v: v) DMSO vehicle (1% (v/v) final concentration)+5 μl 1 nM GR and 5 μl 0.5 nM Fluorome GS Red. […] Assay blank background wells (used for normalisation) receive 15 μl 1× GS screening buffer+5 μl GR.
Compounds were prepared as solubilised solids at 10 mM in DMSO. On the day of assay, an 8 point half-log serial dilution (55 μl DMSO+25 μl compound solution) was prepared. A 1:50 dilution (1 μl compound solution+49 μl 1× GR screening buffer) was prepared for each compound. The compounds were prepared at 2× final assay concentration.
The plates were mixed and incubated for 4 hour at room temperature.
10× GR screening buffer (100 mM potassium phosphate pH 7.4, 200 mM Na2MoO4, 1 mM EDTA, 20% (v/v) DMSO). To prepare 1× GR screening buffer, combine 1 ml 10× GR screening buffer (PanVera P2814)+1 ml stabilising peptide (PanVera P2815)+7.95 ml 4° C. MQ water. Add 50 μl 1M DTT, vortex and place on ice until use.

[1] = tested on: induction of TAT by dexamethasone in HepG2 cells; experiment: HepG2 tyrosine aminotransferase (TAT) assay; assay type: cell-based, human
Procedure: Example 21. HepG2 Tyrosine Aminotransferase (TAT) Assay
Glucocorticoid mediated activation of TAT occurs by transactivation of glucocorticoid response elements in the TAT promoter by glucocorticoid receptor agonist complex.
TAT activity was measured as outlined in the literature by A. Ali et al., J. Med. Chem., 2004, 47, 2441-2452.
HepG2 cells were cultured using MEME media supplemented with 10% (v/v) foetal bovine serum; 2 mM L-glutamine and 1% (v/v) NEAA at 37° C., 5%/95% (v/v) CO2/air. The HepG2 cells were counted and adjusted to yield a density of 0.125×10^6 cells/ml in RPMI 1640 without phenol red, 10% (v/v) charcoal stripped FBS, 2 mM L-glutamine and seeded at 25,000 cells/well in 200 μl into 96 well, sterile, tissue culture micro titre plates, and incubated at 37° C., 5% CO2 for 24 hours
Growth media was removed and replaced with assay media {RPMI 1640 without phenol red, 2 mM L-glutamine+10 μM forskolin}. […] Compounds were serially half log diluted in 100% (v/v) dimethylsupfoxide from a 10 mM stock.
HepG2 cells were then lysed with 30 μl of cell lysis buffer containing a protease inhibitor cocktail for 15 minutes at 4° C. 155 μl of substrate mixture was then added containing 5.4 mM Tyrosine sodium salt, 10.8 mM alpha ketoglutarate and 0.06 mM pyridoxal 5′ phosphate in 0.1M potassium phosphate buffer (pH 7.4). After 2 hours incubation at 37° C. the reaction was terminated by the addition of 15 μl of 10M aqueous potassium hydroxide solution, and the plates incubated for a further 30 minutes at 37° C. The TAT activity product was measured by absorbance at […].
[compound] and fitting the data to a 4 parameter logistic equation.

[2] = human recombinant GR, fluorescence polarisation binding assay, read-out: GR binding
[3] = HepG2 cells, challenge of 100 nM dexamethasone, Ki from IC50 by Cheng and Prusoff equation

Row | SMILES | Ki (human recombinant GR; [2]) [nM] | Ki (human recombinant GR) [nM] | Ki [1] [nM] | Ki [1, 3] [nM]
1 | O=C(c1cccs1)[C@]12Cc3cnn(-c4ccc(F)cc4)c3C=C1CCN(S(=O)(=O)c1ccc(C(F)(F)F)cc1)C2 [Example 1H, (R)-(1-(4-fluorophenyl)-6-((4-(trifluoromethyl)phenyl)sulfonyl)-4,4a,5,6,7,8-hexahydro-1H-pyrazolo[3,4-g]isoquinolin-4a-yl)(thiophen-2-yl)methanone] |  | < 0.5 | 20 to 100 | 
2 | Cc1cccc(S(=O)(=O)N2CCC3=Cc4c(cnn4-c4ccc(F)cc4)C[C@]3(C(=O)c3ncco3)C2)c1 [Example 1I, (R)-(1-(4-fluorophenyl)-6-(m-tolylsulfonyl)-4,4a,5,6,7,8-hexahydro-1H-pyrazolo[3,4-g]isoquinolin-4a-yl)(oxazol-2-yl)methanone] | < 0.5 |  |  | 20 to 100
3 | Cc1cccc(S(=O)(=O)N2CCC3=Cc4c(cnn4-c4ccc(F)cc4)C[C@]3(C(=O)c3ncccn3)C2)c1 [Example 1J, (R)-(1-(4-fluorophenyl)-6-(m-tolylsulfonyl)-4,4a,5,6,7,8-hexahydro-1H-pyrazolo [3,4-g]isoquinolin-4a-yl)(pyrimidin-2-yl)methanone] | < 0.5 |  |  | 20 to 100
4 | COc1ccnc(C(=O)[C@]23Cc4cnn(-c5ccc(F)cc5)c4C=C2CCN(S(=O)(=O)c2cc(F)cc(F)c2)C3)c1 [Example 1K, (R)-(6-((3,5-difluorophenyl)sulfonyl)-1-(4-fluorophenyl)-4,4a,5,6,7,8-hexahydro-1H-pyrazolo[3,4-g]isoquinolin-4a-yl)(4-methoxypyridin-2-yl)methanone] | < 0.5 |  |  | < 20
5 | CCc1ccnc(C(=O)[C@]23Cc4cnn(-c5ccc(F)cc5)c4C=C2CCN(S(=O)(=O)c2cc(F)c(F)c(F)c2)C3)c1 [Example 1L, (R)-(4-ethylpyridin-2-yl)(1-(4-fluorophenyl)-6-((3,4,5-trifluorophenyl)sulfonyl)-4,4a,5,6,7,8-hexahydro-1H-pyrazolo[3,4-g]isoquinolin-4a-yl)methanone] | < 0.5 |  |  | < 20
6 | COc1ccnc(C(=O)[C@]23Cc4cnn(-c5ccc(F)cc5)c4C=C2CCN(S(=O)(=O)c2cc(F)c(F)c(F)c2)C3)c1 [Example 1M, (R)-(1-(4-fluorophenyl)-6-((3,4,5-trifluorophenyl)sulfonyl)-4,4a,5,6,7,8-hexahydro-1H-pyrazolo[3,4-g]isoquinolin-4a-yl)(4-methoxypyridin-2-yl)methanone] | < 0.5 |  |  | < 20
7 | O=C(c1ccccn1)[C@]12Cc3cnn(-c4ccc(F)cc4)c3C=C1CCN(S(=O)(=O)c1ccc(F)cc1)C2 [Example 2, (R)-(1-(4-fluorophenyl)-6-((4-fluorophenyl)sulfonyl)-4,4a,5,6,7,8-hexahydro-1H-pyrazolo[3,4-g]isoquinolin-4a-yl)(pyridin-2-yl)methanone] |  | < 0.5 | < 20 | 
8 | Cc1ccccc1S(=O)(=O)N1CCC2=Cc3c(cnn3-c3ccc(F)cc3)C[C@]2(C(=O)c2ccccn2)C1 [Example 2C, (R)-(1-(4-fluorophenyl)-6-(o-tolylsulfonyl)-4,4a,5,6,7,8-hexahydro-1H-pyrazolo [3,4-g]isoquinolin-4a-yl)(pyridin-2-yl)methanone] |  | < 0.5 |  | < 20
9 | Cc1cccc(S(=O)(=O)N2CCC3=Cc4c(cnn4-c4ccc(F)cc4)C[C@]3(C(=O)c3ccccn3)C2)c1 [Example 2E, (R)-(1-(4-fluorophenyl)-6-(m-tolylsulfonyl)-4,4a,5,6,7,8-hexahydro-1H-pyrazolo[3,4-g]isoquinolin-4a-yl)(pyridin-2-yl)methanone] |  | < 0.5 | < 20 | 
10 | O=C(c1ccccn1)[C@]12Cc3cnn(-c4ccc(F)cc4)c3C=C1CCN(S(=O)(=O)c1cccc(Cl)c1)C2 [Example 2F, (R)-(6-((3-chlorophenyl)sulfonyl)-1-(4-fluorophenyl)-4,4a,5,6,7,8-hexahydro-1H-pyrazolo[3,4-g]isoquinolin-4a-yl)(pyridin-2-yl)methanone] |  | < 0.5 | < 20 | 
11 | COc1cccc(S(=O)(=O)N2CCC3=Cc4c(cnn4-c4ccc(F)cc4)C[C@]3(C(=O)c3ccccn3)C2)c1 [Example 2G, (R)-(1-(4-fluorophenyl)-6-((3-methoxyphenyl)sulfonyl)-4,4a,5,6,7,8-hexahydro-1H-pyrazolo[3,4-g]isoquinolin-4a-yl)(pyridin-2-yl)methanone] |  | < 0.5 | < 20 | 

Second part, led by results:

Row | Ki (human recombinant GR; [2]) [nM] | SMILES | Ki (human recombinant GR) [nM] | Ki [1] [nM] | Ki [1, 3] [nM]
12 | < 0.5 | O=C(c1nccs1)[C@]12Cc3cnn(-c4ccc(F)cc4)c3C=C1CCN(S(=O)(=O)Cc1cccc(F)c1)C2 [Example 2A, (R)-(6-((3-fluorobenzyl)sulfonyl)-1-(4-fluorophenyl)-4,4a,5,6,7,8-hexahydro-1H-pyrazolo[3,4-g]isoquinolin-4a-yl)(thiazol-2-yl) methanone] |  |  | ≥ 100
13 | < 0.5 | CCc1ccc(S(=O)(=O)N2CCC3=Cc4c(cnn4-c4ccc(F)cc4)C[C@]3(C(=O)c3ccccn3)C2)cc1 [Example 2D, (R)-(6-((4-ethylphenyl)sulfonyl)-1-(4-fluorophenyl)-4,4a,5,6,7,8-hexahydro-1H-pyrazolo[3,4-g]isoquinolin-4a-yl)(pyridin-2-yl)methanone] |  |  | < 20
14 | < 0.5 | O=C(c1ccccn1)[C@]12Cc3cnn(-c4ccc(F)cc4)c3C=C1CCN(S(=O)(=O)c1ccc(Cl)c(F)c1)C2 [Example 2H, (R)-(6-((4-chloro-3-fluorophenyl)sulfonyl)-1-(4-fluorophenyl)-4,4a,5,6,7,8-hexahydro-1H-pyrazolo[3,4-g]isoquinolin-4a-yl)(pyridin-2-yl)methanone] |  |  | < 20
15 | < 0.5 | COc1ccc(S(=O)(=O)N2CCC3=Cc4c(cnn4-c4ccc(F)cc4)C[C@]3(C(=O)c3ccccn3)C2)cc1 [Example 2I, (R)-(1-(4-fluorophenyl)-6-((4-methoxyphenyl)sulfonyl)-4,4a,5,6,7,8-hexahydro-1H-pyrazolo[3,4-g]isoquinolin-4a-yl)(pyridin-2-yl)methanone] |  |  | < 20
16 | < 0.5 | Cc1ccc(S(=O)(=O)N2CCC3=Cc4c(cnn4-c4ccc(F)cc4)C[C@]3(C(=O)c3ccccn3)C2)cc1F [Example 2J, (R)-(6-((3-fluoro-4-methylphenyl)sulfonyl)-1-(4-fluorophenyl)-4,4a,5,6,7,8-hexahydro-1H-pyrazolo[3,4-g]isoquinolin-4a-yl)(pyridin-2-yl)methanone] |  |  | < 20
